In US20260138949A1, “NOVEL COMPOUND AS PHOSPHOLIPASE D INHIBITOR AND USE THEREOF” (UIF (UNIVERSITY INDUSTRY FOUNDATION), YONSEI UNIVERSITY, priority 2022, published 2026):

System: normal colon epithelial cells (FHC)
Experiment: Cell cycle analysis (BrdU/7-AAD flow cytometry) in normal cells
Type: cell-based
Details: 5-FU 10 μM, 48 hours
Procedure: (§1) To observe cell cycle changes, normal colon epithelial cells (FHC) and human colon cancer cell line DLD1 were treated with compound 1-91 at 2 μM and the positive control 5-FU at 10 μM. After 48 hours, the cells were washed with PBS, harvested, and sequentially treated with bromodeoxyuridine (BrdU) and 7-aminoactinomycin D (7-AAD). The cells were then stained with an anti-BrdU antibody conjugated with fluorescein isothiocyanate (FITC) and analyzed using a flow cytometer.

| SMILES | cell cycle arrest, normal cells |
| --- | --- |
| O=c1[nH]cc(F)c(=O)[nH]1 [Example 5-FU, reference compound] | arrested the cell cycle at the G0/G1 phase in normal cells |

System: human colon cancer cell line (DLD1)
Experiment: Apoptosis (annexin V-FITC) in cancer cells
Type: cell-based
Details: DLD1, 5-FU 10 μM, 48 hours
Procedure: (§2) To observe changes in apoptosis, normal colon epithelial cells (FHC) and human colon cancer cell line (DLD1) were treated with compound 1-91 at 2 μM and the positive control 5-FU at 10 μM. After 48 hours, the cells were washed with PBS, harvested, and analyzed for apoptosis using an annexin V-FITC apoptosis detection kit.

| SMILES | apoptosis, cancer cells |
| --- | --- |
| O=c1[nH]cc(F)c(=O)[nH]1 [Example 5-FU, reference compound] | induced apoptosis in both normal and cancer cells |

System: normal colon epithelial cells (FHC)
Experiment: Apoptosis (annexin V-FITC) in normal cells
Type: cell-based
Details: 5-FU 10 μM, 48 hours
Procedure: as §2

| SMILES | apoptosis, normal cells |
| --- | --- |
| O=c1[nH]cc(F)c(=O)[nH]1 [Example 5-FU, reference compound] | induced apoptosis in both normal and cancer cells |

System: phospholipase D1
Experiment: PLD activity in HCT116 cells ([3H]phosphatidylbutanol, TLC)
Type: cell-based, human
Details: compound 10 μM, cells without the compound = 100%

| SMILES | Remaining activity % at 10 μM |
| --- | --- |
| O=C(Nc1cc(C(F)(F)F)cc(C(F)(F)F)c1)c1cc2cc(F)c(F)cc2[nH]1 [Example 1-113, N-(3,5-bis(trifluoromethyl)phenyl)-5,6-difluoro-1H-indole-2-carboxamide] | 42.48% |
| COc1ccc(COC(=O)c2cc3ccccc3[nH]2)cc1 [Example 1-116, 4-methoxybenzyl 1H-indole-2-carboxylate] | 52.66% |
| COc1ccc(NC(=O)c2cc3cc(F)ccc3[nH]2)cc1OC [Example 1-93, N-(3,4-dimethoxyphenyl)-5-fluoro-1H-indole-2-carboxamide] | 58.09% |
| CCC(C)c1ccc(NC(=O)Cc2c[nH]c3ccccc23)cc1 (stereo not drawn) [Example 1-34, N-(4-sec-butylphenyl)-2-(1H-indol-3-yl)acetamide] | 66.07% |
| O=C(Cc1c[nH]c2ccccc12)NCCc1ccc(Br)cc1 [Example 1-60, N-(4-bromophenethyl)-2-(1H-indol-3-yl)acetamide] | 82.15% |
| O=C(Cc1c[nH]c2ccccc12)NCc1ccc(C(F)(F)F)cc1 [Example 1-43, 2-(1H-indol-3-yl)-N-(4-(trifluoromethyl)benzyl)acetamide] | 48.92% |
| COc1ccc(COC(=O)CCCc2c[nH]c3ccccc23)cc1 [Example 1-117, 4-methoxybenzyl 4-(1H-indol-3-yl)butanoate] | 72.65% |
| O=C(Cc1c[nH]c2ccccc12)Nc1ccccc1O [Example 1-7, N-(2-hydroxyphenyl)-2-(1H-indol-3-yl)acetamide] | 65.03% |
| O=C(CCc1c[nH]c2ccccc12)Nc1ccc(O)c(O)c1 [Example 1-108, N-(3,4-dihydroxyphenyl)-3-(1H-indol-3-yl)propanamide] | 76.29% |
| O=C(Cc1c[nH]c2ccccc12)Nc1ccc(O)c(O)c1 [Example 1-106, N-(3,4-dihydroxyphenyl)-2-(1H-indol-3-yl)acetamide] | 62.00% |
| COc1ccc(NC(=O)c2cc3ccccc3[nH]2)cc1OC [Example 1-87, N-(3,4-dimethoxyphenyl)-1H-indole-2-carboxamide] | 71.67% |
| O=C(CCc1c[nH]c2ccccc12)Nc1cc(F)cc(F)c1 [Example 1-66, N-(3,5-difluorophenyl)-3-(1H-indol-3-yl)propanamide] | 84.92% |
| O=C(CCc1c[nH]c2ccccc12)NCc1ccc(Cl)c(Cl)c1 [Example 1-72, N-(3,4-dichlorobenzyl)-3-(1H-indol-3-yl)propanamide] | not active |
| O=C(Nc1ccc(O)c(O)c1)c1cc2ccccc2[nH]1 [Example 1-109, N-(3,4-dihydroxyphenyl)-1H-indole-2-carboxamide] | not active |
| O=C(Cc1c[nH]c2ccccc12)Nc1cccc(F)c1 [Example 1-13, N-(3-fluorophenyl)-2-(1H-indol-3-yl)acetamide] | 30.28% |
| O=C(CCc1c[nH]c2ccccc12)Nc1cccc(F)c1 [Example 1-62, N-(3-fluorophenyl)-3-(1H-indol-3-yl)propanamide] | 49.36% |
| O=C(Cc1c[nH]c2ccccc12)NNc1ccc(Cl)cc1 [Example 1-53, N′-(4-chlorophenyl)-2-(1H-indol-3-yl)acetohydrazide] | not active |

System: human colon cancer cell line DLD1
Experiment: Cell cycle analysis (BrdU/7-AAD flow cytometry) in cancer cells
Type: cell-based
Details: DLD1, 5-FU 10 μM, 48 hours
Procedure: as §1

| SMILES | cell cycle arrest, cancer cells |
| --- | --- |
| O=c1[nH]cc(F)c(=O)[nH]1 [Example 5-FU, reference compound] | at the Sub G1 phase in cancer cells |
